Measurements: ChEMBL document CHEMBL4342522 (J Med Chem, 2020)
pIC50, pKi: −log10 of the molar value.

How the values were obtained:
[1] = target: T1, Bromodomain-containing protein 4 (Homo sapiens, UniProt O60885); assay: biochemical; format: cell-based
Description: Inhibition of human N-terminal His6 tagged BRD4 BD1 (57 to 168) residues expressed in Escherichia coli BL21(DE3) cells after 1 hr by TR-FRET assay

[2] = target: T1, Bromodomain-containing protein 4; assay: Inhibition of human N-terminal His6 tagged BRD4 BD2 (352 to 457) residues expressed in Escherichia coli BL21(DE3) cells after 1 hr by TR-FRET assay
SKM-1 = assay: Antiproliferative activity against human SKM1 cells assessed as reduction in cell viability after 5 days by CellTiter-Glo assay; format: functional, cell-based; conditions: SKM-1, 120 h
NCI-H1299 = assay: Antiproliferative activity against human H1299 cells assessed as reduction in cell viability after 5 days by CellTiter-Glo assay; format: functional, cell-based; conditions: NCI-H1299, 120 h
[3] = Unbound hepatic clearance in human liver microsomes; format: ADME, Microsome
[4] = Unbound hepatic clearance in mouse liver microsomes; format: ADME, Microsome
[5] = Unbound hepatic clearance in rat liver microsomes; format: ADME, Microsome
[6] = Permeability in dog MDCK cells by PAMPA; format: ADME, cell-based, Canis lupus familiaris; conditions: read-out: permeability

Row | Compound | pKi [1] | pKi [2] | pIC50 (SKM-1) | pIC50 (NCI-H1299) | CL free [3] [L/h/kg] | CL free [4] [L/h/kg] | CL free [5] [L/h/kg] | Papp [6] [×10⁻⁶ cm/s]
1 | CCNC(=O)c1cc2c(-c3cc(S(C)(=O)=O)ccc3Oc3c(C)cccc3C)cn(C)c(=O)c2[nH]1 | 6.85 | 8.92 | 7.92 to 7.96 | 6.10 | 5.5 | 33 | 39 | 10.7
2 | CCNC(=O)c1cc2c(-c3ccccc3Cc3c(C)cccc3C)cn(C)c(=O)c2[nH]1 | 5.68 | 7.60 | 6.82 | 5.38 | 320 | 2300 | 1300 | 3.81
3 | Cc1cc(F)cc(C)c1Oc1ccc(C(C)(C)O)cc1-c1cn(C)c(=O)c2[nH]c(C(=O)NC3(C)CC3(F)F)cc12 (centres undefined) | 6.11 | 8.70 | 7.18 | 5.54 | 67 | 210 | 84 | 0.76
4 | CCNC(=O)c1cc2c(-c3cc(S(=O)(=O)CC)ccc3N3CCc4cccc(C)c43)cn(C)c(=O)c2[nH]1 | 8.05 | 9.30 | 8.38 | 6.47 |  |  |  | 
5 | CCNC(=O)c1cc2c(-c3cc(S(=O)(=O)C4CC4)ccc3Oc3c(C)cccc3C)cn(C)c(=O)c2[nH]1 | 7.42 | 9.22 | 7.70 | 6.14 | 18 | 103 | 107 | 8.33
6 | CCNC(=O)c1cc2c(-c3cc(NC(=O)OC)ccc3Oc3c(C)cc(F)cc3C)cn(C)c(=O)c2[nH]1 | 6.54 | 8.54 | 7.30 | 5.62 | 33 | 380 |  | 0.92
7 | CCNC(=O)c1cc2c(-c3cc(S(=O)(=O)CC)ccc3Oc3c(C)cc(F)cc3C)cn(C)c(=O)c2[nH]1 | 7.10 | 8.89 | 7.85 | 6.09 | 10 | 55 | 28 | 6.12
8 | CCNC(=O)c1cc2c(-c3cc(S(=O)(=O)CC)ccc3Oc3c(C)cccc3F)cn(C)c(=O)c2[nH]1 | 7.89 | 9.05 | 8.60 | 6.59 | 9 |  | 152 | 15.4
9 | CCNC(=O)c1ccc(Oc2c(C)cccc2C)c(-c2cn(C)c(=O)c3[nH]c(C(=O)NCC)cc23)c1 | 6.89 | 8.74 | 7.72 | 5.82 | 13 | 19 |  | 2.63
10 | CCNC(=O)c1cc2c(-c3cc(S(=O)(=O)CC)ccc3Oc3cc(C)cc(C)c3)cn(C)c(=O)c2[nH]1 | 8.08 | 9.15 | 8.59 | 7.03 | 32 | 96 | 97 | 3.1
11 | CCNC(=O)c1cc2c(-c3cc(C4(O)CCC4)ccc3Oc3c(C)cc(F)cc3C)cn(C)c(=O)c2[nH]1 | 6.66 | 8.82 | 7.59 | 5.66 | 350 | 940 | 380 | 1.56
12 | Cc1cc(F)cc(C)c1Oc1ccc(C(C)(C)O)cc1-c1cn(C)c(=O)c2[nH]c(C(=O)NC34CC(C3)C4)cc12 | 6.36 | 8.89 | 8.00 | 5.96 | 120 | 710 |  | 0.97
13 | CCNC(=O)c1cc2c(-c3cc(S(=O)(=O)CC)ccc3-n3ccc4ccccc43)cn(C)c(=O)c2[nH]1 | 6.85 | 8.74 | 7.30 | 5.89 | 27 | 130 | 38 | 15.9
14 | COc1ccc2c(c1)[C@]13CCCC[C@@H]1[C@H](C2)N(C)CC3 [DEXTROMETHORPHAN] |  |  |  |  |  |  | 7.4 | 
15 | CCNC(=O)c1cc2c(-c3cc(S(=O)(=O)CC)ccc3Oc3c(C)cccc3C(C)(C)C)cn(C)c(=O)c2[nH]1 | 6.40 | 7.82 | 6.54 | 5.49 |  |  |  | 
16 | CCNC(=O)c1cc2c(-c3cc(S(=O)(=O)CC)ccc3Oc3c(C)cccc3Cl)cn(C)c(=O)c2[nH]1 | 7.52 | 9.05 | 8.21 | 6.17 | 15.3 |  | 127 | 2.73
17 | CCNC(=O)c1cc2c(-c3cc(NS(=O)(=O)CC)ccc3Oc3c(C)cc(F)cc3C)cn(C)c(=O)c2[nH]1 | 7.31 | 8.96 | 7.38 | 6.01 | 19 | 120 |  | 0.23
18 | CCNC(=O)c1cc2c(-c3cc(S(=O)(=O)CC)ccc3Oc3ccccc3C(C)(C)C)cn(C)c(=O)c2[nH]1 | 7.66 | 8.68 | 7.68 | 6.34 | 97 |  | 86 | 5.6
19 | Cc1cc(F)cc(C)c1Oc1ccc(C(C)(C)O)cc1-c1cn(C)c(=O)c2[nH]c(C(=O)NC(C)(C)C)cc12 | 6.51 | 8.89 | 7.60 | 5.82 | 130 | 520 | 87 | 
20 | CCNC(=O)c1cc2c(-c3cc(S(C)(=O)=O)ccc3Oc3ccc(F)cc3F)cn(C)c(=O)c2[nH]1 |  | 8.89 | 8.18 | 6.43 | 3.6 | < 5.5 | < 3.1 | 10.8
21 | CCNC(=O)c1cc2c(-c3cc(CO)ccc3Oc3c(C)cccc3C)cn(C)c(=O)c2[nH]1 | 6.57 | 8.77 | 7.19 | 5.52 | 25 | 140 |  | 1.69
22 | CCNC(=O)c1cc2c(-c3cc(C4(O)COC4)ccc3Oc3c(C)cc(F)cc3C)cn(C)c(=O)c2[nH]1 |  | 8.96 | 7.62 | 5.57 | 21 | 32 | 16 | 1.66
23 | Cc1cc(F)cc(C)c1Oc1ccc(C(C)(C)O)cc1-c1cn(C)c(=O)c2[nH]c(C(=O)NC(C)(C)C(F)(F)F)cc12 |  |  | 7.10 | 5.59 | 570 | 2800 | 1100 | 0.57
24 | CCNC(=O)c1cc2c(-c3cc(S(N)(=O)=O)ccc3Oc3c(C)cccc3C)cn(C)c(=O)c2[nH]1 | 7.18 | 8.96 | 8.15 | 5.52 |  |  |  | 
25 | CCNC(=O)c1cc2c(-c3cc(C(=O)O)ccc3Oc3c(C)cccc3C)cn(C)c(=O)c2[nH]1 | 6.52 | 8.55 | 5.51 | < 5.00 |  |  |  | 0.74
26 | CCNC(=O)c1cc2c(-c3cc(S(=O)(=O)CC)ccc3-c3c(C)cccc3C)cn(C)c(=O)c2[nH]1 | < 4.92 | 7.66 | 5.89 | < 5.00 | 33 |  | 37 | 9
27 | CCNC(=O)c1cc2c(-c3cc(S(=O)(=O)CC)ccc3Oc3ccccc3C)cn(C)c(=O)c2[nH]1 | 8.08 | 9.10 | 8.48 | 7.02 | 8.5 | 66 |  | 3.68
